Reference: ChEMBL document CHEMBL1143306, “3-amido-4-anilinoquinolines as CSF-1R kinase inhibitors 2: Optimization of the PK profile” (Bioorg Med Chem Lett, 2009)
Converted amounts (≈) assume the structure as drawn.

Experiments:
[1] = target: T1, Macrophage colony-stimulating factor 1 receptor (Homo sapiens, UniProt P07333); test: Inhibition of CSF1R
[2] = Aqueous solubility of the compound; format: physicochemical; conditions: buffer
[3] = Plasma protein binding assessed as percentage unbound
[4] = Bioavailability in rat at 3 mg/kg, iv and 10 mg/kg, po; format: ADME, organism-based; conditions: in vivo
[5] = Clearance in rat at 3 mg/kg, iv and 10 mg/kg, po; format: ADME, organism-based; conditions: in vivo
[6] = Volume of distribution at steady state in rat at 3 mg/kg, iv and 10 mg/kg, po; format: ADME, organism-based; conditions: in vivo, read-out: Vdss
[7] = Half life in rat at 3 mg/kg, iv and 10 mg/kg, po; format: ADME, organism-based; conditions: in vivo
Mus musculus [8] = test: Inhibition of phosphorylated CSF1R level in 3T3/CSF1R mutant cells xenografted nude mouse at 25 mg/kg, po after 2 hrs by ELISA; format: functional
Mus musculus [9] = test: Inhibition of phosphorylated CSF1R level in 3T3/CSF1R mutant cells xenografted nude mouse at 25 mg/kg, po after 6 hrs by ELISA; format: functional
[10] = target: T1, Macrophage colony-stimulating factor 1 receptor; test: Inhibition of CSF1R at 1 uM
[11] = target: T2, NUAK family SNF1-like kinase 1 (Homo sapiens) (UniProt O60285); test: Inhibition of ARK5 at 1 uM
T2 sequence (whole entry): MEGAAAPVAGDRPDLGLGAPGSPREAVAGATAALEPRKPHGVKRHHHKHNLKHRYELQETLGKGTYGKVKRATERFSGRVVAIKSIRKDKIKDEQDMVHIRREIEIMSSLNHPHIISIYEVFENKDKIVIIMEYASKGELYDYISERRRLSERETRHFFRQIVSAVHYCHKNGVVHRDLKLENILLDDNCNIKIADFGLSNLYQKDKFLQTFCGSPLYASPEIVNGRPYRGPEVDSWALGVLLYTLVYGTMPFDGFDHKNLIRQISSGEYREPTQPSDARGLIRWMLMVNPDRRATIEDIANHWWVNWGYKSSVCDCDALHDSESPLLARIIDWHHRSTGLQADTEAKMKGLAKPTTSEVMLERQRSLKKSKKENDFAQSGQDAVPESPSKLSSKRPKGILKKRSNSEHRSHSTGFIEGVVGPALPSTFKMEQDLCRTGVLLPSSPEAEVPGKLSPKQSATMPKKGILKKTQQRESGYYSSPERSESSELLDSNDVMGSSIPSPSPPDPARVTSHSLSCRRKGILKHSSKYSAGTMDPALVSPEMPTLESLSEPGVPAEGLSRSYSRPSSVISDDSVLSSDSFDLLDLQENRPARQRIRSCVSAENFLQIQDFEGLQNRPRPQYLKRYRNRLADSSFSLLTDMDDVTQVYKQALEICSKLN

[12] = target: ALK tyrosine kinase receptor (Homo sapiens) (UniProt Q9UM73); test: Inhibition of ALK at 1 uM
Sequence of ALK tyrosine kinase receptor (Homo sapiens) (Q9UM73 19-1620 limits assumed): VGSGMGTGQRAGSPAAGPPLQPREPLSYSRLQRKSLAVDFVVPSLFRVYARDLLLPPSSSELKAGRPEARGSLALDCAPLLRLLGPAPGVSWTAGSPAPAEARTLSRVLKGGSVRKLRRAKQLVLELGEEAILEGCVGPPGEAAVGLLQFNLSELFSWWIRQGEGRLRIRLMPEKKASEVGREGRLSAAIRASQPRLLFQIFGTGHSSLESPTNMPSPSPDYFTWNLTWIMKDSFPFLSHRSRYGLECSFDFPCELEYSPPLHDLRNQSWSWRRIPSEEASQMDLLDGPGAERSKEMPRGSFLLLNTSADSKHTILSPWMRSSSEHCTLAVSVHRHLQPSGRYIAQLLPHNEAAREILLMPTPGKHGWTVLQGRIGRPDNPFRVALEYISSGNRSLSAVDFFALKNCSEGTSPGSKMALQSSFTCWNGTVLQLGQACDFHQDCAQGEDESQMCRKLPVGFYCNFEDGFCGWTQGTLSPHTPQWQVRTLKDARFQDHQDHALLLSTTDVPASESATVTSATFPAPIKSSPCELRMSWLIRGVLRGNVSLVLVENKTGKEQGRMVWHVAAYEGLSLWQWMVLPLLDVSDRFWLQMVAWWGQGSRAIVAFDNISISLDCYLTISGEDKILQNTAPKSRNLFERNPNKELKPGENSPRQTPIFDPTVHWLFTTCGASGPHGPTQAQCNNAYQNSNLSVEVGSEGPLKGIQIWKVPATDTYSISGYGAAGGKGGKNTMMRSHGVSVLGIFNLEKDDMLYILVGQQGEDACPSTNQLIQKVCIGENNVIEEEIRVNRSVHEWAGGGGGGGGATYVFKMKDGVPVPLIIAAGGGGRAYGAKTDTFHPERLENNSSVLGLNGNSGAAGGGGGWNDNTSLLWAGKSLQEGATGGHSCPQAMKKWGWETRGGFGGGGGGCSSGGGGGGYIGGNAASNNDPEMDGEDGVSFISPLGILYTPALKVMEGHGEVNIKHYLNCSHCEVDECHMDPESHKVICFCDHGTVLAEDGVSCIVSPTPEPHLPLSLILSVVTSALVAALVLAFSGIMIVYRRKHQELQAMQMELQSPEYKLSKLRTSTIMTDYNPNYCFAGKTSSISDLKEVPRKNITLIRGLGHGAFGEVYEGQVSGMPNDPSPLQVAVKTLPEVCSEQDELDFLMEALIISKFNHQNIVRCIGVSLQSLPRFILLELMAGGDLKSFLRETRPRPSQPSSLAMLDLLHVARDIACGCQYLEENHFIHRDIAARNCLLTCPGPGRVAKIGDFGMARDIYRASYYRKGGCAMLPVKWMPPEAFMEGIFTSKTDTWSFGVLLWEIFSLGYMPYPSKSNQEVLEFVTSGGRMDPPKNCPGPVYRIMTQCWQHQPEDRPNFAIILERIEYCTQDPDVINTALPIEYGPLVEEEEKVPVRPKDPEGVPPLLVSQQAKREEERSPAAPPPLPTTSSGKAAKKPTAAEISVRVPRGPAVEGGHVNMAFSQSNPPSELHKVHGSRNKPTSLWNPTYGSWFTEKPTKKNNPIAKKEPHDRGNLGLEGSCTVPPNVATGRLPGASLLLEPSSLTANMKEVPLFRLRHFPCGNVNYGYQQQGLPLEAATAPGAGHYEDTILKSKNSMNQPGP

[13] = target: Ribosomal protein S6 kinase alpha-1 (Homo sapiens) (UniProt Q15418); test: Inhibition of RSK1 at 1 uM
Sequence of Ribosomal protein S6 kinase alpha-1 (Homo sapiens) (Q15418 whole entry): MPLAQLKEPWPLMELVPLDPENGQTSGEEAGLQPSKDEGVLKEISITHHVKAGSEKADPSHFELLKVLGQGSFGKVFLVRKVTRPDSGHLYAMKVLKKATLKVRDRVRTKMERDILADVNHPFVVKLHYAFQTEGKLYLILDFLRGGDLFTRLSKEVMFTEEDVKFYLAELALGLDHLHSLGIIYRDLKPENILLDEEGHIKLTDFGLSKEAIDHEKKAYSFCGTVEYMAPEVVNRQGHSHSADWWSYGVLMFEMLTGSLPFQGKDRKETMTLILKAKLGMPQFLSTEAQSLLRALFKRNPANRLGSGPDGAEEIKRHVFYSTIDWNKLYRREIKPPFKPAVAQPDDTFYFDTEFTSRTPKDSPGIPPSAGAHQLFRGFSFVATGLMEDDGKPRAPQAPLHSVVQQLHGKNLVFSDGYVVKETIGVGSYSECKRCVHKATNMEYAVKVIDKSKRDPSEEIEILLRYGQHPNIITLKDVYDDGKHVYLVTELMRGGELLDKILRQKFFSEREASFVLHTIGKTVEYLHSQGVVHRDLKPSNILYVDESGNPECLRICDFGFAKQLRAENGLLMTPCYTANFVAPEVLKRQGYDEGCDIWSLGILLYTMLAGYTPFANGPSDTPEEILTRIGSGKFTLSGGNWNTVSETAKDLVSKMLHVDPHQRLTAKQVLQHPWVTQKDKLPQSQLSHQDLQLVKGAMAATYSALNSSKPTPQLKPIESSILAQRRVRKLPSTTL

NIH3T3 = test: Antiproliferative activity against mouse 3T3 cells expressing human CSF1R after 72 hrs by Celltiter assay; format: functional

T1 sequence (P07333 whole entry): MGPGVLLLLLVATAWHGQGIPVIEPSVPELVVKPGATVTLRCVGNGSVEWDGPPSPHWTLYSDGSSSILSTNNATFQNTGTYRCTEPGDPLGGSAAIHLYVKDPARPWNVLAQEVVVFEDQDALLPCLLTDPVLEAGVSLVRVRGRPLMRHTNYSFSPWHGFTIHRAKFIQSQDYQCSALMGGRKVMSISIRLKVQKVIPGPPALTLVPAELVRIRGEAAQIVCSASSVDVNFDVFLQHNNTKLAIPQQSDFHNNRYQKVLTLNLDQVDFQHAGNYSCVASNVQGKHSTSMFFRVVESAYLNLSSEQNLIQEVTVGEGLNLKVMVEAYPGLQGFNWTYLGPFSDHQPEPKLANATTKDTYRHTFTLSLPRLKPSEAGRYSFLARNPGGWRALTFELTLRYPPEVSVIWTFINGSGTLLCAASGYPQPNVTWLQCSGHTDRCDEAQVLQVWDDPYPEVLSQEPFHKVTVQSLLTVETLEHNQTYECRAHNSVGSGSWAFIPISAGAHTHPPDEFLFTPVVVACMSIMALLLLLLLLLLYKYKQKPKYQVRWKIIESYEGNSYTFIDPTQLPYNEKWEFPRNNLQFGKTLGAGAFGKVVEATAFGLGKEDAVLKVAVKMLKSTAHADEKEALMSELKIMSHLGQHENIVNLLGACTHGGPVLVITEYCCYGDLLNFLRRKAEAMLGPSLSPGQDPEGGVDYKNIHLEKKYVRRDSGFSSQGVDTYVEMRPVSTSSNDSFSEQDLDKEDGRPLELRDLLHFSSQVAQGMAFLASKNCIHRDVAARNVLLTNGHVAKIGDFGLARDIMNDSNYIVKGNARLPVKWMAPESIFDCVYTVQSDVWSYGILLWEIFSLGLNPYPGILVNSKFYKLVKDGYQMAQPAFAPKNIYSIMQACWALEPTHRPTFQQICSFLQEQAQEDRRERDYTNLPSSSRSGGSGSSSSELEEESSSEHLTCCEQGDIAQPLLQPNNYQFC

IC50 [1] [nM] | solubility [2] [µM] | fraction unbound [3] | bioavailability [4] [%] | clearance [5] [mL/min/kg] | Vd [6] [L/kg] | half-life [7] [min] | inhibition [10] [%] | inhibition [11] [%] | inhibition [12] [%] | inhibition [13] [%] | Compound | inhibition in vivo at 25 mg/kg (Mus musculus [8]) [%] | inhibition in vivo at 25 mg/kg (Mus musculus [9]) [%] | Activity (NIH3T3) [µM]
6 | 290 (≈ 128 µg/mL) | 0.11 | 100 | 12 | 2.5 | 126 | 96 | 51 | 23 | 21 | CCOc1cc2ncc(C(N)=O)c(Nc3ccc(F)cc3F)c2cc1N1CCN(C)CC1 | 90 | 65 | –
< 3 | 50 (≈ 23.7 µg/mL) | 0.02 | 100 | 57 | 3.5 | 54 | – | – | – | – | CCOc1cc2ncc(C(N)=O)c(Nc3cccc(Cl)c3Cl)c2cc1N1CCN(C)CC1 | 75 | 45 | –
< 3 | 810 (≈ 373 µg/mL) | 0.045 | 110 | 76 | 6.8 | 150 | – | – | – | – | COc1cc2ncc(C(N)=O)c(Nc3cccc(Cl)c3Cl)c2cc1N1CCN(C)CC1 | – | – | 0.06
